According to patent US11919902B2, “Aryl-bipyridine amine derivatives as phosphatidylinositol phosphate kinase inhibitors” (HiberCell, Inc., priority 2017, dated 2024):

What was measured:
[1] = target: T1, PIP4K2A (full length protein, SignalChem) (Homo sapiens, UniProt P48426); assay: Kinase Assay PIP4K2 A (Sprint); ADP-Glo biochemical assay; conditions: Table 2; compounds listed under IC50 range headings
T1 construct: 4 nM PIP4K2A (full length protein, SignalChem); purchased SignalChem
T1 sequence (P48426 1-406): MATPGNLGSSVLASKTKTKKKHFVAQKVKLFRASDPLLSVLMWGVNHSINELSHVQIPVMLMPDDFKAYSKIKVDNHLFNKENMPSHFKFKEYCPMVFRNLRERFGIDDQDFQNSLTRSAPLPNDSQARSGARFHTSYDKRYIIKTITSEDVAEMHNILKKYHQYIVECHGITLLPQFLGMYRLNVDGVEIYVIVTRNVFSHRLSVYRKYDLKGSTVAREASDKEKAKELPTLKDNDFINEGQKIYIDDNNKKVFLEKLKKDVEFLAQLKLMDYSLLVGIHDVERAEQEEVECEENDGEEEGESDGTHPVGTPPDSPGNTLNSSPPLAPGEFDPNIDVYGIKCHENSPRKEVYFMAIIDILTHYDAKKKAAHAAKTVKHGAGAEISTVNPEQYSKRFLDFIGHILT
Summary of the method: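 ADP-Glo luminescence detected ADP after a 1 h RT reaction started with 60 μM ATP solution. Before that, full-length PIP4K2A (4 nM in mix) with 100 μM PI(5)P diC8 was pre-incubated 15 min with compounds in MOPS buffer pH 7.2, 25 mM MgCl2, 0.005% Tween 20. IC50 derived from % inhibition relative to DMSO over 10 three-fold concentrations.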

GST tagged PIP4KtypeIIB = target: T2, GST tagged PIP4KtypeIIB (Homo sapiens, UniProt P78356); assay: Trans-FI P kinase assay PIP4K2B (PIP4KtypeIIB inhibition assay); format: biochemical; conditions: Table 4; compounds listed under IC50 range headings; 100 uM GTP, 5 nM PIP4KIIB; read-out: Trans-FI P kinase assays: PIP4K2B IC50
T2 construct: made in house; host or cells: E. coli
T2 sequence (P78356 1-416): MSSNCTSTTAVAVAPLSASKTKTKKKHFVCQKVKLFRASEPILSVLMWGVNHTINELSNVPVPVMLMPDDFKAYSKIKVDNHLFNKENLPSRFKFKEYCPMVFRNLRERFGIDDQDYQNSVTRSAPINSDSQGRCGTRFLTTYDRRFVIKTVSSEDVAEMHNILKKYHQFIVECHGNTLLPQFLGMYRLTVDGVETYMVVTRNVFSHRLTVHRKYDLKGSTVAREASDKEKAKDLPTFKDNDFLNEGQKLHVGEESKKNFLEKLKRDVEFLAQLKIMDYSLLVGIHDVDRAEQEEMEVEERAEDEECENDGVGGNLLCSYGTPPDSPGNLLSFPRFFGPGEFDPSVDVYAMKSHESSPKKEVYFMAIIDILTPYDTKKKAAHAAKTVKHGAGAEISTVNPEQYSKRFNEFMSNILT
Summary of the method: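 Transcreener FI fluorescence, converted to GDP by calibration, tracked product from 5 nM E. coli-expressed GST-PIP4KIIB acting on 80 uM PI5P (DOPE carrier) with 100 uM GTP. Compound (top 4.8 uM final, 5% DMSO) was preincubated 1 h at 27 C before the 2 h reaction; IC50 fitted from residual activity.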

GST tagged PIP4KtypeIIA = target: T3, GST tagged PIP4KtypeIIA (Homo sapiens, UniProt P48426); assay: ADP-glo kinase assay PIP4K 2A (PIP4KtypeIIA inhibition assay); format: biochemical; conditions: Table 3; compounds listed under IC50 range headings; 10 uM ATP, 0.5 nM PIP4KIIA
T3 construct: made in house; host or cells: E. coli
T3 sequence (P48426 1-406): T1 sequence (P48426 1-406)
Summary of the method: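 Read-out was ADP-Glo luminescence converted to μM ADP, with IC50 plotted as % of no-inhibitor activity against log concentration. Reactions contained 10 μM ATP, 80 μM PI5P with DOPE carrier, and 0.5 nM GST-tagged PIP4KIIA (E. coli-expressed) in pH 7.3 HEPES/MgCl2 buffer with 5% DMSO. Enzyme and compound (≤4.8 μM) were preincubated 1 h at 27 °C before the 1 h reaction.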

| SMILES | IC50 [1] | IC50 (GST tagged PIP4KtypeIIB) | IC50 (GST tagged PIP4KtypeIIA) |
| --- | --- | --- | --- |
| Cn1cc(-c2cnc(N)c(-c3ccc(N4CCCC4=O)cc3)c2)c2cccnc21 [Example 87, 1-(4-(2-amino-5-(1-methyl-1H-pyrrolo[2,3-b]pyridin-3-yl)pyridin-3-yl)phenyl)pyrrolidin-2-one] | 5 to 100 nM | 100 to 1000 nM | 100 to 1000 nM |
| CCOc1cnc2[nH]ccc2c1-c1cncc(-c2ccc(N3CCCC3=O)cc2)c1 [Example 59, 1-(4-(5-(5-ethoxy-1H-pyrrolo[2,3-b]pyridin-4-yl)pyridin-3-yl)phenyl)pyrrolidin-2-one] | 100 to 1000 nM | 100 to 1000 nM | 1000 to 2500 nM |
| O=C1CCCN1c1ccc(-c2cncc(-c3ccncc3)c2)cc1 [Example 41, 1-[4-[5-(4-Pyridyl)-3-pyridyl]phenyl]pyrrolidin-2-one] | 1000 to 2500 nM | > 5000 nM | > 5000 nM |
| CN(C)C(=O)c1ccc(-c2cc(-c3cnc4c(c3)c(-c3cncnc3)nn4C)cnc2N)nc1 [Example 124, 2′-amino-N,N-dimethyl-5′-(1-methyl-3-(pyrimidin-5-yl)-1H-pyrazolo[3,4-b]pyridin-5-yl)-[2,3′-bipyridine]-5-carboxamide] | 1000 to 2500 nM | > 5000 nM | > 5000 nM |
| CC(C)Cn1cc(-c2cncc(-c3ccc(N4CCCC4=O)cc3)c2)c2cn[nH]c2c1=O [Example 68, 6-isobutyl-4-(5-(4-(2-oxopyrrolidin-1-yl)phenyl)pyridin-3-yl)-1,6-dihydro-7H-pyrazolo[3,4-c]pyridin-7-one] | 5 to 100 nM | 10 to 100 nM | 10 to 100 nM |
| CN1CCn2c(cc3c(-c4cncc(-c5ccc(C(=O)N6CCCCC6)cc5)c4)ccnc32)C1=O [Example 354, 7-methyl-4-(5-(4-(piperidine-1-carbonyl)phenyl)pyridin-3-yl)-8,9-dihydropyrido[3′,2′:4,5]pyrrolo[1,2-a]pyrazin-6(7H)-one] | 100 to 1000 nM | 10 to 100 nM | 100 to 1000 nM |
| O=C(NCC1CC1)c1cc2c(-c3cncc(-c4ccc(N5CCCC5=O)cc4)c3)ccnc2o1 [Example 79, N-(cyclopropylmethyl)-4-(5-(4-(2-oxopyrrolidin-1-yl)phenyl)pyridin-3-yl)furo[2,3-b]pyridine-2-carboxamide] | 5 to 100 nM | 10 to 100 nM | 10 to 100 nM |
| COc1ncc(-c2cnc(N)c(-c3ccc(N4CCCC4=O)cc3)c2)c2cn[nH]c12 [Example 258, 1-(4-(2-amino-5-(7-methoxy-2H-pyrazolo[3,4-c]pyridin-4-yl)pyridin-3-yl)phenyl)pyrrolidin-2-one] | 5 to 100 nM | 100 to 1000 nM | 100 to 1000 nM |
| CNC(=O)c1cc2c(-c3cncc(-c4ccc(N5CCCC5=O)cc4)c3)ccnc2o1 [Example 49, N-methyl-4-(5-(4-(2-oxopyrrolidin-1-yl)phenyl)pyridin-3-yl)furo[2,3-b]pyridine-2-carboxamide] | 5 to 100 nM | 10 to 100 nM | 10 to 100 nM |
| CN(C)C(=O)c1ccc(-c2cc(-c3ccnc4ncccc34)cnc2N)nc1 [Example 111, 2′-amino-N,N-dimethyl-5′-(1,8-naphthyridin-4-yl)-[2,3′-bipyridine]-5-carboxamide] | 100 to 1000 nM | 100 to 1000 nM | 100 to 1000 nM |
| COC(=O)c1cc2c(-c3cnc(N)c(-c4ccc(C(=O)N(C)C)cn4)c3)ccnc2[nH]1 [Example 126, methyl 4-(2′-amino-5-(dimethylcarbamoyl)-[2,3′-bipyridin]-5′-yl)-1H-pyrrolo[2,3-b]pyridine-2-carboxylate] | 5 to 100 nM | 10 to 100 nM | 10 to 100 nM |
| Nc1ncc(-c2csc3ncccc23)cc1-c1ccc(N2CCCC2=O)cn1 [Example 23, 1-(2′-amino-5′-(thieno[2,3-b]pyridin-3-yl)-[2,3′-bipyridin]-5-yl)pyrrolidin-2-one] | 5 to 100 nM | 100 to 1000 nM | 100 to 1000 nM |
| CN(C)C(=O)c1ccc(-c2cc(-c3cc(Nc4cccc(N)c4)ncn3)cnc2N)nc1 [Example 216, 2′-amino-5′-(6-((3-aminophenyl)amino)pyrimidin-4-yl)-N,N-dimethyl-[2,3′-bipyridine]-5-carboxamide] | 100 to 1000 nM | 100 to 1000 nM | 100 to 1000 nM |
| CN1CCn2c(cc3c(-c4cncc(-c5ccc(N6CCCC6=O)cc5)c4)ccnc32)C1=O [Example 46, 7-methyl-4-(5-(4-(2-oxopyrrolidin-1-yl)phenyl)pyridin-3-yl)-8,9-dihydropyrido[3′,2′:4,5]pyrrolo[1,2-a]pyrazin-6(7H)-one] | 5 to 100 nM | 10 to 100 nM | 100 to 1000 nM |
| Cn1ncc2c(-c3cncc(-c4ccc(N5CCCC5=O)cc4)c3)c[nH]c(=O)c21 [Example 158, 1-methyl-4-(5-(4-(2-oxopyrrolidin-1-yl)phenyl)pyridin-3-yl)-1,6-dihydro-7H-pyrazolo[3,4-c]pyridin-7-one] | 5 to 100 nM | 100 to 1000 nM | 100 to 1000 nM |
| CN(C)C(=O)c1ccc(-c2cc(-c3ccnc4[nH]c(C(=O)N5CCOCC5)cc34)cnc2N)nc1 [Example 128, 2′-amino-N,N-dimethyl-5′-(2-(morpholine-4-carbonyl)-1H-pyrrolo[2,3-b]pyridin-4-yl)-[2,3′-bipyridine]-5-carboxamide] | 100 to 1000 nM | 100 to 1000 nM | 1000 to 2500 nM |
| Cn1cc(-c2cncc(-c3ccc(N4CCCC4=O)cc3)c2)c2cn[nH]c2c1=O [Example 54, 6-methyl-4-(5-(4-(2-oxopyrrolidin-1-yl)phenyl)pyridin-3-yl)-1,6-dihydro-7H-pyrazolo[3,4-c]pyridin-7-one] | 5 to 100 nM | 100 to 1000 nM | 100 to 1000 nM |
| CC(C)CNC(=O)c1cc2c(-c3cnc(N)c(-c4ccc(C(=O)N(C)C)cn4)c3)ccnc2[nH]1 [Example 131, 4-(2′-amino-5-(dimethylcarbamoyl)-[2,3′-bipyridin]-5′-yl)-N-isobutyl-1H-pyrrolo[2,3-b]pyridine-2-carboxamide] | 100 to 1000 nM | 10 to 100 nM | 100 to 1000 nM |
| Cn1cc(-c2cnc(N)c(-c3ccc(N4CCCC4=O)cc3)c2)c2cc(N3CCCC3=O)cnc21 [Example 91, 1-(4-(2-amino-5-(1-methyl-5-(2-oxopyrrolidin-1-yl)-1H-pyrrolo[2,3-b]pyridin-3-yl)pyridin-3-yl)phenyl)pyrrolidin-2-one] | 5 to 100 nM | 10 to 100 nM | 100 to 1000 nM |
| CN(C)C(=O)c1ccc(-c2cc(-c3ccnc(CNC(=O)c4ccc(NC(=O)OC(C)(C)C)cc4)c3)cnc2N)nc1 [Example 187, tert-butyl(4-(((2′-amino-5-(dimethylcarbamoyl)-[2,3′:5′,4″-terpyridin]-2″-yl)methyl)carbamoyl)phenyl)carbamate] | 2500 to 5000 nM | > 5000 nM | > 5000 nM |
| Cn1ncc2c(-c3cnc(N)c(-c4ccc(N5CCCC5=O)cc4)c3)cn(CC3CCOCC3)c(=O)c21 [Example 92, 4-(6-amino-5-(4-(2-oxopyrrolidin-1-yl)phenyl)pyridin-3-yl)-1-methyl-6-((tetrahydro-2H-pyran-4-yl)methyl)-1,6-dihydro-7H-pyrazolo[3,4-c]pyridin-7-one] | 5 to 100 nM | 10 to 100 nM | 10 to 100 nM |
| CC(C)OC(=O)c1cc2c(-c3cncc(-c4ccc(N5CCCC5=O)cc4)c3)ccnc2o1 [Example 167, isopropyl 4-(5-(4-(2-oxopyrrolidin-1-yl)phenyl)pyridin-3-yl)furo[2,3-b]pyridine-2-carboxylate] | 5 to 100 nM | 10 to 100 nM | 10 to 100 nM |
| O=C1CCCN1c1ccc(-c2cncc(-c3cnc4nccn4c3)c2)cc1 [Example 275, 1-(4-(5-(imidazo[1,2-a]pyrimidin-6-yl)pyridin-3-yl)phenyl)pyrrolidin-2-one] | 100 to 1000 nM | 2500 to 5000 nM | 100 to 1000 nM |
